Results published in patent US11433055B2, “Chromane monobactam compounds for the treatment of bacterial infections” (priority 2017, dated 2022).
Counter-ions that a name gives are not always drawn. Like-named read-outs stand apart in the source and are kept apart here.

Legend:
Assay type in all cases: cell-based
Conditions in all cases: lowest concentration inhibiting 95% of bacterial growth, in the presence of β lactamase inhibitor (BLi, Relebactam), 22 hours, 35±2° C., OD600
[1] = system: Acinetobacter baumannii expressing TEM-1, AmpC, and Oxa-24/40 (CL6188)
Experimental: (§1) Antibiotic Activity: Determination of Growth Inhibitory Concentration
(§2) The concentrations of compounds required to inhibit the growth of various strains of bacteria were determined in an assay that assessed bacterial growth by measuring optical density at 600 nm (OD600). The bacterial strains tested included the clinical strains Escherichia coli expressing NDM-1 (CLB30016), Klebsiella pneumoniae expressing KPC-1 (CL6569), Acinetobacter baumannii expressing TEM-1, AmpC, and Oxa-24/40 (CL6188) and Pseudomonas aeruginosa expressing AmpC (CL5701). All compounds were tested in the presence of a β lactamase inhibitor (BLi, Relebactam) in 384-well microplates. The clinical strains were stored as frozen single use stocks, thawed and diluted into 1.1× cation-adjusted Mueller-Hinton II broth to achieve approximately 2×10^5 CFU/mL. Test compounds were dissolved in DMSO and diluted 1:50 in the assay, resulting in a final concentration range of 100 μM to 0.098 μM. On the day of the assay, 1 μL of test compound was added to the plate followed by 4 μL of 50 μg/mL BLi in MOPS buffer and 45 μL of diluted bacteria. Plates were centrifuged at 1000 rpm for 30 seconds, shaken at approximately 800 rpm for 1 minute, and incubated at 35±2° C. for 22 hours. The concentration of BLi used in the assay was […]. At the end of the incubation, absorbance at 600 nm was determined using a spectrophotometer. Inhibition was quantitated by identifying the lowest concentration of test compound that was required to inhibit 95% of the growth of the bacteria. The results for Examples 1-39 are reported in Table I, expressed as the concentration of compound that inhibited 95% of bacterial growth (Minimum Inhibitory Threshold Concentration; MITC95).

[2] = system: Escherichia coli expressing NDM-1 (CLB30016)
Experimental: as §1, §2

[3] = system: Klebsiella pneumoniae expressing KPC-1 (CL6569)
Experimental: as §1, §2

[4] = system: Pseudomonas aeruginosa expressing AmpC (CL5701)
Experimental: as §1, §2

| SMILES | AB_CL6188 MITC95 [1] | EC_CLB30016 MITC95 [2] | KP_CL6569 MITC95 [3] | PA_CL5701 MITC95 [4] | AB_CL6188 MITC95 ([1]; sulfate formate) | EC_CLB30016 MITC95 ([2]; sulfate formate) | KP_CL6569 MITC95 ([3]; sulfate formate) | PA_CL5701 MITC95 ([4]; sulfate formate) |
| --- | --- | --- | --- | --- | --- | --- | --- | --- |
| C[n+]1cc(-c2ccc3c(c2)CC[C@H]([C@](C)(O/N=C(\C(=O)N[C@@H]2C(=O)N(OS(=O)(=O)[O-])C2(C)C)c2csc(N)n2)C(=O)O)O3)ccc1CC(CN)CN.O=CO [Example 16, (3S)-3-((Z)-2-(((1S)-1-((2R)-6-(6-(3-amino-2-(ammonio-methyl)propyl)-1-methylpyridin-1-ium-3-yl)chroman-2-yl)-1-carboxyethoxy)imino)-2-(2-aminothiazol-4-yl)acetamido)-2,2-dimethyl-4-oxoazetidin-1-yl sulfate formate] | 3.125 µM | 6.25 µM | 0.3906 µM | 3.125 µM |  |  |  |  |
| C[n+]1cc(-c2ccc3c(c2)CC[C@H]([C@](C)(O/N=C(\C(=O)N[C@@H]2C(=O)N(OS(=O)(=O)[O-])C2(C)C)c2csc(N)n2)C(=O)O)O3)cn1C[C@H](O)CN [Example 7, (S)-3-((Z)-2-(((S)-1-((R)-6-(1-((R)-3-amino-2-hydroxypropyl)-2-methyl-1H-pyrazol-2-ium-4-yl)chroman-2-yl)-1-carboxyethoxy)imino)-2-(2-aminothiazol-4-yl)acetamido)-2,2-dimethyl-4-oxoazetidin-1-yl sulfate] | 25 µM | 25 µM | 1.563 µM | 12.5 µM |  |  |  |  |
| CC1(C)[C@H](NC(=O)/C(=N\O[C@](C)(C(=O)O)[C@H]2CCc3cc(-c4ccc5[n+](c4)CC(CN)CN5CCN)ccc3O2)c2csc(N)n2)C(=O)N1OS(=O)(=O)[O-].O=CO (stereo partly drawn) [Example 39] | 7.292 µM | 12.5 µM | 0.3255 µM | 3.125 µM |  |  |  |  |
| C[n+]1cc(-c2ccc3c(c2)CC[C@H]([C@](C)(O/N=C(\C(=O)N[C@@H]2C(=O)N(OS(=O)(=O)[O-])C2(C)C)c2csc(N)n2)C(=O)O)O3)cnc1N(CCN)CC1CNC1.O=CO [Example 15, (S)-3-((Z)-2-(((S)-1-((R)-6-(2-((2-aminoethyl)(azetidin-1-ium-3-ylmethyl)amino)-1-methylpyrimidin-1-ium-5-yl)chroman-2-yl)-1-carboxyethoxy)imino)-2-(2-aminothiazol-4-yl)acetamido)-2,2-dimethyl-4-oxoazetidin-1-yl sulfate formate] | 3.125 µM | 6.25 µM | 0.3906 µM | 6.25 µM |  |  |  |  |
| C[n+]1cc(-c2ccc3c(c2)CC[C@H]([C@](C)(O/N=C(\C(=O)N[C@@H]2C(=O)N(OS(=O)(=O)[O-])C2(C)C)c2csc(N)n2)C(=O)O)O3)ccc1NC(CN)CN.O=CO [Example 23A, (3S)-3-((Z)-2-(((1S)-1-((2R)-6-(6-((1-amino-3-ammoniopropan-2-yl)amino)-1-methylpyridin-1-ium-3-yl)chroman-2-yl)-1-carboxyethoxy)imino)-2-(2-aminothiazol-4-yl)acetamido)-2,2-dimethyl-4-oxoazetidin-1-yl sulfate formate] |  |  |  |  | 6.25 µM | 12.5 µM | 0.3906 µM | 3.125 µM |
| C[n+]1cc(-c2ccc3c(c2)OCC(CO/N=C(\C(=O)N[C@@H]2C(=O)N(OS(=O)(=O)[O-])C2(C)C)c2csc(N)n2)C3)ccc1NCCN.O=C(O)C(F)(F)F (single isomer, unassigned) [Example 37B] | 50 µM | 100 µM | 6.25 µM | 25 µM |  |  |  |  |
| CC1(C)[C@H](NC(=O)/C(=N\O[C@](C)(C(=O)O)[C@H]2CCc3cc(-c4cn(C[C@@H](O)CN)[n+](CC5CNC5)c4)ccc3O2)c2csc(N)n2)C(=O)N1OS(=O)(=O)[O-] [Example 4, (S)-3-((Z)-2-(((S)-1-((R)-6-(1-((S)-3-Amino-2-hydroxypropyl)-2-(azetidin-3-ylmethyl)-1H-pyrazol-2-ium-4-yl)chroman-2-yl)-1-carboxyethoxy)imino)-2-(2-aminothiazol-4-yl)acetamido)-2,2-dimethyl-4-oxoazetidin-1-yl Sulfate] | 6.25 µM | 12.5 µM | 1.281 µM | 25 µM |  |  |  |  |
| C[n+]1cc(-c2ccc3c(c2)OCC(CO/N=C(\C(=O)N[C@@H]2C(=O)N(OS(=O)(=O)[O-])C2(C)C)c2csc(N)n2)C3)ccc1NCCN.O=C(O)C(F)(F)F (single isomer, unassigned) [Example 37A] | 12.5 µM | 12.5 µM | 0.78 µM | 3.13 µM |  |  |  |  |
| C[n+]1cc(-c2ccc3c(c2)CC[C@H]([C@](C)(O/N=C(\C(=O)N[C@@H]2C(=O)N(OS(=O)(=O)[O-])C2(C)C)c2csc(N)n2)C(=O)O)O3)ccc1NCCN [Example 34, mono((S)-3-((Z)-2-(2-aminothiazol-3-ium-4-yl)-2-(((S)-1-((R)-6-(6-((2-ammonioethyl)amino)-1-methylpyridin-1-ium-3-yl)chroman-2-yl)-1-carboxy-ethoxy)imino)acetamido)-2,2-dimethyl-4-oxoazetidin-1-yl sulfate) mono(2,2,2-trifluoroacetate)] | 12.5 µM | 25 µM | 0.78 µM | 25 µM |  |  |  |  |
| CC1(C)[C@H](NC(=O)/C(=N\O[C@](C)(C(=O)O)[C@H]2CCc3cc(-c4ccc(NCCN)[n+](CC5CNC5)c4)ccc3O2)c2csc(N)n2)C(=O)N1OS(=O)(=O)[O-].O=CO [Example 14, (S)-3-((Z)-2-(((S)-1-((R)-6-(6-((2-aminoethyl)amino)-1-(azetidin-1-ium-3-ylmethyl)pyridin-1-ium-3-yl)chroman-2-yl)-1-carboxyethoxy)imino)-2-(2-aminothiazol-4-yl)acetamido)-2,2-dimethyl-4-oxoazetidin-1-yl Sulfate Formate] | 50 µM | 12.5 µM | 0.7813 µM | 12.5 µM |  |  |  |  |
| C[n+]1cc(-c2ccc3c(c2)CC[C@@H](CO/N=C(\C(=O)N[C@@H]2C(=O)N(OS(=O)(=O)[O-])C2(C)C)c2csc(N)n2)O3)ccc1NCCN [Example 36, mono((R)-3-((Z)-2-(2-aminothiazol-3-ium-4-yl)-2-((((S)-6-(6-((2-ammonioethyl)amino)-1-methyl-pyridin-1-ium-3-yl)chroman-2-yl)methoxy)imino)acetamido)-2,2-dimethyl-4-oxoazetidin-1-yl sulfate) mono(2,2,2-trifluoroacetate)] | 3.125 µM | 12.5 µM | 0.7813 µM | 6.25 µM |  |  |  |  |
| CC1(C)[C@H](NC(=O)/C(=N\O[C@](C)(C(=O)O)[C@H]2CCc3cc(C4CNC(NCCN)=N4)ccc3O2)c2csc(N)n2)C(=O)N1OS(=O)(=O)O (single isomer, unassigned) [Example 26] | 12.5 µM | 100 µM | 1.563 µM | 50 µM |  |  |  |  |
